We go through ten compounds from ChEMBL document CHEMBL1201862, “PubChem BioAssay data set” (2004).

The structures appear in SMILES notation.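 The compound was tested at five concentrations on cells cultured in 96-well plates, with a 48-hour exposure period. GI50 marks 50% less growth.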 The source made the active and inactive calls. No stated cut-off is given here; in the data, active = GI50 up to about 1.1 µM and inactive = higher.

What all share (experiment): DTP human tumour cell line panel, 48 h
Assay [1] deals with MDA-MB-231.
The subject of assay [2] is OVCAR-8.
In assay [3] the test system is SR.
The subject of assay [4] is SK-MEL-2.
In assay [5] the test system is A498.
For assay [6], the system named is TK-10.
Assay [7] concerns LOX IMVI.
Assay [8] has as its system EKVX.
In assay [9] the test system is A549.
Assay [10] has as its system SK-MEL-5.
Assay [11] deals with RPMI-8226.
For assay [12], the system named is SW-620.
Assay [13] has as its system UACC-257.
In assay [14] the test system is T47D.
Assay [15] deals with HCT-116.
In assay [16] the test system is NCI-H226.
The subject of assay [17] is SF-295.
Assay [18] has as its system HT-29.
For assay [19], the system named is 786-0.
The subject of assay [20] is CCRF-CEM.

As a reminder, the GI50 is the concentration at which growth is held to half of that of the control. As for `Nc1nc(I)nc2c1ncn2C1OC(COS(N)(=O)=O)C(O)C1O` (stereo not drawn), the 50% growth inhibitory concentration (GI50) in assay [1] was < 0.01 µM (active); in assay [2] it was < 0.01 µM (active); in assay [3] it was < 0.01 µM (active); in [4], < 0.01 µM (active); in [5], < 0.01 µM (active); in assay [6], 0.0102 µM (active). Moreover, the 50% growth inhibitory concentration (GI50) was < 0.0116 µM (active) in [7]; < 0.0121 µM (active) in assay [8]; 0.0275 µM (active) in [9]; < 0.01 µM (active) in [10]; 0.0179 µM (active) in [11]; 0.0235 µM (active) in assay [12]. Also, the 50% growth inhibitory concentration (GI50) in [13] is 0.0163 µM (active); in assay [14] it was < 0.01 µM (active); in assay [15], < 0.01 µM (active); in assay [16], < 0.01 µM (active); in assay [17] it was 0.0393 µM (active); in assay [18], < 0.0106 µM (active). Also, the GI50 is < 0.0106 µM (active) in assay [19] and < 0.01 µM (active) in [20].

Regarding `O=C(CC(O)(C(F)(F)F)C(F)(F)F)c1cc(CC(=O)C(O)(C(F)(F)F)C(F)(F)F)cc(CC(=O)C(O)(C(F)(F)F)C(F)(F)F)c1`, the GI50 in assay [1] is 1.64 µM (inactive); in [2], 1.95 µM (inactive); in [3], 6.78 µM (inactive); in assay [4] it was 1.75 µM (inactive); in assay [5], 1.88 µM (inactive); in assay [6] it was 2.4 µM (inactive). Moreover, the GI50 was 1.14 µM (inactive) in assay [7]; 2.24 µM (inactive) in [8]; 1.84 µM (inactive) in assay [9]; 1.57 µM (inactive) in assay [10]; > 10 µM (inactive) in [11]; 2.06 µM (inactive) in [12]. Besides, the GI50 in assay [13] was 1.95 µM (inactive); in [14], 0.419 µM (active); in [15], 0.76 µM (active); in assay [16], 3.01 µM (inactive); in assay [17] it was 1.05 µM (active); in assay [18], 1.4 µM (inactive). In addition, the GI50 in [19] was 1.79 µM (inactive); in assay [20] it was > 10 µM (inactive).

For the compound `N#CC12C(=O)N=C(N)C1(C#N)C(c1ccco1)NC1=C2CCCC1` (stereo not drawn), the GI50 in assay [1], in [2], in [3], in assay [4], in assay [5] and in [6] was > 100 µM (inactive) throughout. Also, the GI50 in assay [7], in assay [8], in assay [9], in [10], in assay [11] and in assay [12] was > 100 µM (inactive) throughout. For the same compound, the GI50 in assay [13], in assay [14], in [15], in [16], in [17] and in assay [18] was > 100 µM (inactive) throughout. In addition, the GI50 in assay [19] and in assay [20] was > 100 µM (inactive) each time.

With `O=c1[nH]c2c(Nc3c4ccccc4nc4ccccc34)c([N+](=O)[O-])c(Nc3c4ccccc4nc4ccccc34)c([N+](=O)[O-])c2[nH]1`, the GI50 in assay [1] was 2.06 µM (inactive); in assay [2], 1.21 µM (inactive); in assay [3], 0.741 µM (active); in [4], 1.87 µM (inactive); in [5], 1.32 µM (inactive); in [6], 2.11 µM (inactive). The GI50 in assay [7] was 1.52 µM (inactive); in assay [8], 1.82 µM (inactive); in assay [9], 1.55 µM (inactive); in assay [10] it was 2.11 µM (inactive); in [11] it was 0.514 µM (active); in assay [12], 1.17 µM (inactive). Also, the GI50 in assay [13] was 2.41 µM (inactive); in assay [14], 3.29 µM (inactive); in [15] it was 0.687 µM (active); in assay [16], 2.68 µM (inactive); in [17], 2.41 µM (inactive); in [18], 0.618 µM (active). The GI50 is 1.2 µM (inactive) in [19] and 0.855 µM (active) in [20].

As for `C[C@H]1[C@H](C)CC[C@]2(C(=O)OC3OC(CO)C(O)C(O)C3O)CC[C@]3(C)C(=CC[C@@H]4[C@@]5(C)C[C@@H](O)[C@@H]6OC(=O)c7cc(O)c(O)c(O)c7-c7c(cc(O)c(O)c7O)C(=O)OC[C@@]6(CO)[C@@H]5CC[C@]43C)[C@H]12` (stereo partly drawn), the GI50 in assay [1] was 19.5 µM (inactive); in assay [2], 57.1 µM (inactive); in assay [3], 38.1 µM (inactive); in assay [4], > 100 µM (inactive); in assay [5] it was > 100 µM (inactive); in assay [6], > 100 µM (inactive). The GI50 in assay [7] is 17.8 µM (inactive); in assay [8], > 100 µM (inactive); in [9], > 100 µM (inactive); in assay [10] it was > 84.9 µM (inactive); in assay [11], 98.2 µM (inactive); in assay [12], 28.6 µM (inactive). The GI50 was > 100 µM (inactive) in assay [13]; > 100 µM (inactive) in assay [14]; 46.7 µM (inactive) in assay [15]; > 100 µM (inactive) in [16]; > 100 µM (inactive) in assay [17]; 25.4 µM (inactive) in assay [18]. The GI50 was 23.2 µM (inactive) in [19] and 43.5 µM (inactive) in assay [20].

Consider `CC(=O)C1=C(C)N(c2ccc(C)cc2)C2(O)C=CC(=O)C3C(=O)N(c4ccccc4)C(=O)C132` (stereo not drawn), for which the GI50 in assay [1] is 22.5 µM (inactive); in assay [2] it was 23.3 µM (inactive); in [3], 2.94 µM (inactive); in [4], 12.5 µM (inactive); in assay [5] it was 20.2 µM (inactive); in assay [6] it was 18.4 µM (inactive). The GI50 was 3.08 µM (inactive) in assay [7]; 32.6 µM (inactive) in assay [8]; 38.3 µM (inactive) in assay [9]; 15.4 µM (inactive) in assay [10]; 3.85 µM (inactive) in assay [11]; 4.45 µM (inactive) in [12]. The GI50 in assay [13] is 17.6 µM (inactive); in assay [14], 14.1 µM (inactive); in assay [15], 6.49 µM (inactive); in assay [16], 17.1 µM (inactive); in [17], 14.4 µM (inactive); in [18] it was 18.6 µM (inactive). The GI50 in assay [19] is 30.6 µM (inactive); in assay [20], 3.9 µM (inactive).

Consider `CCOC(=O)c1cccc(NC(=O)CCl)c1`, for which the GI50 in [1] is 4.57 µM (inactive); in assay [2] it was 3.55 µM (inactive); in [3], 1.77 µM (inactive); in assay [4], 2.64 µM (inactive); in assay [5], 15.2 µM (inactive); in assay [6], 6.03 µM (inactive). Besides, the GI50 in [7] is 1.34 µM (inactive); in assay [8] it was 3.18 µM (inactive); in [9] it was 10.4 µM (inactive); in assay [10] it was 1.79 µM (inactive); in assay [11], 3.99 µM (inactive); in [12] it was 3.32 µM (inactive). Also, the GI50 is 5.09 µM (inactive) in [13]; 2.48 µM (inactive) in assay [14]; 2.8 µM (inactive) in [15]; 6.55 µM (inactive) in assay [16]; 12.3 µM (inactive) in [17]; 3.81 µM (inactive) in assay [18]. For the same compound, the GI50 in assay [19] was 1.9 µM (inactive); in assay [20], 3.21 µM (inactive).

Regarding `O=C1c2ccccc2C(=O)N1CCCC(=O)n1cc(F)c(=O)[nH]c1=O`, the GI50 in assay [1] is > 100 µM (inactive); in assay [2], 10.7 µM (inactive); in [3] it was 5.53 µM (inactive); in [4], > 100 µM (inactive); in assay [5], 4.69 µM (inactive); in assay [6], > 41.2 µM (inactive). In addition, the GI50 in [7] was 6.18 µM (inactive); in [8] it was > 58.3 µM (inactive); in assay [9], 3.6 µM (inactive); in assay [10], 12.3 µM (inactive); in assay [11] it was 5.06 µM (inactive); in [12] it was > 72.6 µM (inactive). The GI50 was > 75.2 µM (inactive) in assay [13]; > 33.7 µM (inactive) in [14]; 6.24 µM (inactive) in assay [15]; 38.5 µM (inactive) in assay [16]; 49.1 µM (inactive) in assay [17]; 4.54 µM (inactive) in assay [18]. For the same compound, the GI50 was 14.4 µM (inactive) in assay [19] and 18.6 µM (inactive) in assay [20].

As to `NC(=O)N=C(N(Cc1ccccc1)Cc1ccccc1)N(Cc1ccccc1)Cc1ccccc1`, the GI50 was 15.3 µM (inactive) in [1]; 14.4 µM (inactive) in assay [2]; > 100 µM (inactive) in [3]; > 100 µM (inactive) in [4]; 39.8 µM (inactive) in [5]; > 65.3 µM (inactive) in assay [6]. For the same compound, the GI50 was 5.89 µM (inactive) in assay [7]; > 100 µM (inactive) in assay [8]; > 100 µM (inactive) in assay [9]; > 20.3 µM (inactive) in [10]; 8.02 µM (inactive) in [11]; > 24.3 µM (inactive) in [12]. Besides, the GI50 in assay [14] was > 100 µM (inactive); in assay [15] it was 3.37 µM (inactive); in [16] it was > 100 µM (inactive); in assay [17] it was 3.91 µM (inactive); in [18], 4 µM (inactive); in assay [19], 14.9 µM (inactive). The GI50 in [20] was > 100 µM (inactive).

Consider `CCOC(=O)c1cc(-c2ccn(C(C)=O)c2)c(-c2cc(C)co2)[nH]1`, for which the GI50 in [1], in assay [2], in [3], in assay [4], in [5] and in assay [6] was > 100 µM (inactive) throughout. The GI50 in assay [7], in [8], in [9], in assay [10], in [11] and in assay [12] was > 100 µM (inactive) each time. Further, the GI50 in [13], in assay [14], in assay [15], in assay [16], in assay [17] and in assay [19] was > 100 µM (inactive) each time. Moreover, the GI50 in assay [20] is > 100 µM (inactive).
